Experiment [1] deals with Beet Armyworm (BAW) (Spodoptera exigua). Briefly: Bioassays on BAW, 128-well diet tray assay. The class given is in vivo. The conditions noted are these: Spodoptera exigua, 168 h; 50 μg/cm^2 on artificial diet, second instar larvae, five to seven days, 25° C.; read-out: BAW Rating (percent mortality). On the procedure: (§1) Certain molecules disclosed in this document were tested against BAW, CEW and CL using procedures described in the following examples. In the reporting of the results, the “BAW & CEW & CL Rating Table” was used (See Table Section).
Bioassays on BAW (Spodoptera exigua)
Bioassays on BAW were conducted using a 128-well diet tray assay. One to five second instar BAW larvae were placed in each well (3 mL) of the diet tray that had been previously filled with 1 mL of artificial diet to which 50 μg/cm^2 of the test compound (dissolved in 50 μL of 90:10 acetone-water mixture) had been applied (to each of eight wells) and then allowed to dry. Trays were covered with a clear self-adhesive cover, and held at 25° C., 14:10 light-dark for five to seven days. Percent mortality was recorded for the larvae in each well; activity in the eight wells was then averaged. The results are indicated in the tables entitled “Table 3: Assay Results Part 1” and “Table 4: Assay Results Part 2” (See Table Section).

In experiment [2] the test system is Cabbage Looper (CL) (Trichoplusia ni). Briefly: Bioassays on CL, 128-well diet tray assay. The format is in vivo. The conditions noted are these: 168 h, 50 μg/cm^2 on artificial diet, second instar larvae, five to seven days, 25° C., read-out: CL Rating (percent mortality). On the procedure: as §1
Bioassays on CL (Trichoplusia ni)
Bioassays on CL were conducted using a 128-well diet tray assay. One to five second instar CL larvae were placed in each well (3 mL) of the diet tray that had been previously filled with 1 mL of artificial diet to which 50 μg/cm^2 of the test compound (dissolved in 50 μL of 90:10 acetone-water mixture) had been applied (to each of eight wells) and then allowed to dry. Trays were covered with a clear self-adhesive cover, and held at 25° C., 14:10 light-dark for five to seven days. Percent mortality was recorded for the larvae in each well; activity in the eight wells was then averaged. The results are indicated in the table entitled “Table 4: Assay Results Part 2” (See Table Section).

These results are taken from US9212164B2, “Pesticidal compositions and processes related thereto” (Dow AgroSciences LLC, priority 2012, dated 2015).

SMILES strings stand for the structures.

As for `O=C(NC1(C(=O)NCC(F)F)CC1)c1ccc(/C=C/C(c2cc(Cl)c(Cl)c(Cl)c2)C(F)(F)F)cc1Br` (stereo not shown) [FA32], the mortality at 50 µg/cm2 in experiment [1] and in experiment [2] was 50 to 100% throughout.
Take `O=C(NC1(C(=O)NCC(F)(F)F)CC1)c1ccc(/C=C/C(c2cc(Cl)c(Cl)c(Cl)c2)C(F)(F)F)cc1Br` (stereo not shown) [Compound F3]: the mortality at 50 µg/cm2 in experiment [1] and in experiment [2] was 50 to 100% throughout.
In the case of `CON(CC(F)(F)F)C(=O)C1(NC(=O)c2ccc(/C=C/C(c3cc(Cl)c(Cl)c(Cl)c3)C(F)(F)F)cc2C(F)(F)F)CC1` (stereo not shown) [FA49, (E)-N-(1-(Methoxy(2,2,2-trifluoroethyl)carbamoyl)cyclopropyl)-4-(4,4,4-trifluoro-3-(3,4,5-trichlorophenyl)but-1-en-1-yl)-2-(trifluoromethyl)benzamide], the mortality at 50 µg/cm2 in experiment [1] and in experiment [2] was 50 to 100% throughout.
On to `O=C(NC1(C(=O)NCCC(F)(F)F)CC1)c1ccc(/C=C/C(c2cc(Cl)c(Cl)c(Cl)c2)C(F)(F)F)cc1Br` (stereo not shown) [Compound P1033], for which the mortality at 50 µg/cm2 in experiment [1] and in experiment [2] was 50 to 100% in each case.
`O=C(NC1(C(=O)NCC(F)(F)F)CC1)c1ccc(/C=C/C(c2cc(Cl)c(Br)c(Cl)c2)C(F)(F)F)cc1Br` (stereo not shown) [FA5]: the mortality at 50 µg/cm2 in experiment [1] and in experiment [2] was 50 to 100% throughout.
For the molecule `O=C(NC1(C(=O)NCC(F)(F)F)CC1)c1ccc(/C=C/C(c2cc(Cl)c(Cl)c(Cl)c2)C(F)(F)F)cc1C(F)(F)F` (stereo not shown) [Compound F8], the mortality at 50 µg/cm2 in experiment [1] and in experiment [2] was 50 to 100% each time.
With `N#CC1(NC(=O)c2ccc(/C=C/C(c3cc(Cl)c(Cl)c(Cl)c3)C(F)(F)F)cc2Br)CC1` (stereo not shown) [Compound F7, (E)-2-Bromo-N-(1-cyanocyclopropyl)-4-(4,4,4-trifluoro-3-(3,4,5-trichlorophenyl)but-1-en-1-yl)benzamide], the mortality at 50 µg/cm2 in experiment [1] and in experiment [2] was 50 to 100% in each case.
Consider `O=C(NC1(C(=O)NCC(F)(F)F)CC1)c1ccc(/C=C/[C@@H](c2cc(Cl)c(Cl)c(Cl)c2)C(F)(F)F)cc1C(F)(F)F` (single isomer, unassigned) [Compound F8B], for which the mortality at 50 µg/cm2 in experiment [1] and in experiment [2] was 50 to 100% in each case.
`O=C(NC1(C(=S)NCC(F)(F)F)CC1)c1ccc(/C=C/C(c2cc(Cl)c(Cl)c(Cl)c2)C(F)(F)F)cc1Cl` (stereo not shown) [Compound P1010]: the mortality at 50 µg/cm2 in experiment [1] and in experiment [2] was 50 to 100% in each case.
For `Cc1cc(/C=C/C(c2cc(Cl)c(Cl)c(Cl)c2)C(F)(F)F)ccc1C(=O)NC1(C(=O)NCC(F)(F)F)CCC1` (stereo not shown) [FA1], the mortality at 50 µg/cm2 in experiment [1] and in experiment [2] was 50 to 100% each time.
Consider `O=C(NC1(C(=O)NC2CCOC2)CC1)c1ccc(/C=C/C(c2cc(Cl)c(Cl)c(Cl)c2)C(F)(F)F)cc1Br` (stereo not shown) [FA25], for which the mortality at 50 µg/cm2 in experiment [1] and in experiment [2] was 50 to 100% each time.
For the molecule `O=C(NC1(C(=O)NCCF)CC1)c1ccc(/C=C/C(c2cc(Br)cc(Br)c2)C(F)(F)F)cc1C(F)(F)F` (stereo not shown) [Compound P1200], the mortality at 50 µg/cm2 in experiment [1] and in experiment [2] was 50 to 100% in each case.
Regarding `O=C(NC1(C(=O)NCC(F)(F)F)CC1)c1ccc(/C=C/C(c2cc(Cl)cc(Cl)c2)C(F)(F)F)cc1Br` (stereo not shown) [Compound P1048], the mortality at 50 µg/cm2 in experiment [1] and in experiment [2] was 50 to 100% in each case.
`O=C(NC1(C(=O)NC2CCCCC2)CC1)c1ccc(/C=C/C(c2cc(Cl)c(Cl)c(Cl)c2)C(F)(F)F)cc1Br` (stereo not shown) [FA22]: the mortality at 50 µg/cm2 in experiment [1] is 0%; in experiment [2], 50 to 100%.
On to `O=C(NC1(C(=O)NCCn2cccn2)CC1)c1ccc(/C=C/C(c2cc(Cl)c(Cl)c(Cl)c2)C(F)(F)F)cc1Br` (stereo not shown) [FA23], for which the mortality at 50 µg/cm2 in experiment [1] and in experiment [2] was 50 to 100% in each case.
With `O=C(NC1(C(=O)NC2CCCC2)CC1)c1ccc(/C=C/C(c2cc(Cl)c(Cl)c(Cl)c2)C(F)(F)F)cc1Br` (stereo not shown) [FA17], the mortality at 50 µg/cm2 in experiment [1] and in experiment [2] was 50 to 100% each time.
With `O=C(NC1(C(=O)Nc2cccc(Cl)c2)CC1)c1ccc(/C=C/C(c2cc(Cl)c(Cl)c(Cl)c2)C(F)(F)F)cc1Br` (stereo not shown) [FA38], the mortality at 50 µg/cm2 in experiment [1] and in experiment [2] was 0 to 50% throughout.
As for `O=C(NC1(C(=O)NCCn2ccnc2)CC1)c1ccc(/C=C/C(c2cc(Cl)c(Cl)c(Cl)c2)C(F)(F)F)cc1Br` (stereo not shown) [FA24], the values for the mortality at 50 µg/cm2 in experiment [1] and in experiment [2] were 0 to 50% and 0%, respectively.
As for `O=C(NC1(C(=O)NCC(F)(F)F)CC1)c1ccc(/C=C/C(c2cc(F)cc(Br)c2)C(F)(F)F)cc1Br` (stereo not shown) [Compound P198], the mortality at 50 µg/cm2 in experiment [1] and in experiment [2] was 50 to 100% throughout.
Turning to `COc1ccc(N(C)C(=O)C2(NC(=O)c3ccc(/C=C/C(c4cc(Cl)c(Cl)c(Cl)c4)C(F)(F)F)cc3Br)CC2)cc1` (stereo not shown) [FA41], the mortality at 50 µg/cm2 in experiment [1] and in experiment [2] was 50 to 100% in each case.
As for `COc1ccc(NC(=O)C2(NC(=O)c3ccc(/C=C/C(c4cc(Cl)c(Cl)c(Cl)c4)C(F)(F)F)cc3Br)CC2)cc1` (stereo not shown) [FA40], the mortality at 50 µg/cm2 in experiment [1] and in experiment [2] was 50 to 100% throughout.
For the molecule `O=C(NC1(C(=O)NCC(F)(F)F)CC1)c1ccc(/C=C/C(c2ccc(Cl)c([N+](=O)[O-])c2)C(F)(F)F)cc1Br` (stereo not shown) [Compound P468], the mortality at 50 µg/cm2 in experiment [1] and in experiment [2] was 50 to 100% throughout.
On to `O=C(NC1(C(=O)NCC(F)(F)F)CC1)c1ccc(/C=C/C(c2cc(Br)cc(Br)c2)C(F)(F)F)cc1Br` (stereo not shown) [Compound P1183], for which the mortality at 50 µg/cm2 in experiment [1] and in experiment [2] was 50 to 100% in each case.
Take `O=C(NC1(C(=O)NCC(F)(F)F)CC1)c1ccc(/C=C/C(c2cc(Cl)cc(Br)c2)C(F)(F)F)cc1Br` (stereo not shown) [Compound P378]: the mortality at 50 µg/cm2 in experiment [1] and in experiment [2] was 50 to 100% in each case.
For `Cc1cc(C(/C=C/c2ccc(C(=O)NC3(C(=O)NCC(F)(F)F)CC3)c(Br)c2)C(F)(F)F)cc(Cl)c1Cl` (stereo not shown) [FA4], the mortality at 50 µg/cm2 in experiment [1] and in experiment [2] was 50 to 100% throughout.
On to `CC(F)(F)C(/C=C/c1ccc(C(=O)NC2(C(=O)NCC(F)(F)F)CC2)c(Br)c1)c1ccc(Cl)c(Cl)c1` (stereo not shown) [FA12], for which the mortality at 50 µg/cm2 in experiment [1] and in experiment [2] was 50 to 100% each time.
In the case of `Cn1nc(C(F)(F)F)cc1NC(=O)C1(NC(=O)c2ccc(/C=C/C(c3cc(Cl)c(Cl)c(Cl)c3)C(F)(F)F)cc2Br)CC1` (stereo not shown) [FA48], the mortality at 50 µg/cm2 in experiment [1] and in experiment [2] was 50 to 100% in each case.
In the case of `O=C(NC1(C(=O)NCC(F)(F)F)CC1)c1ccc(/C=C/C(c2cc(Cl)cc(Cl)c2)C(F)(F)F)cc1C(F)(F)F` (stereo not shown) [Compound P1050], the mortality at 50 µg/cm2 in experiment [1] and in experiment [2] was 50 to 100% throughout.
For the molecule `CN(Cc1ccc(Br)cc1)C(=O)C1(NC(=O)c2ccc(/C=C/C(c3cc(Cl)c(Cl)c(Cl)c3)C(F)(F)F)cc2Br)CC1` (stereo not shown) [FA44], the mortality at 50 µg/cm2 in experiment [1] and in experiment [2] was 50 to 100% in each case.
In the case of `O=C(NC1CC1(F)F)c1ccc(/C=C/C(c2cc(Cl)c(Cl)c(Cl)c2)C(F)(F)F)cc1Br` (stereo not shown) [Compound P31], the mortality at 50 µg/cm2 in experiment [1] and in experiment [2] was 50 to 100% in each case.
In the case of `Cc1cc(C(/C=C/c2ccc(C(=O)NC3(C(=O)NCC(F)(F)F)CC3)c(C(F)(F)F)c2)C(F)(F)F)ccc1Cl` (stereo not shown) [Compound P245], the mortality at 50 µg/cm2 in experiment [1] and in experiment [2] was 50 to 100% in each case.
As for `O=C(NC1(C(=O)NCCF)CC1)c1ccc(/C=C/C(c2cc(Cl)c(Cl)c(Cl)c2)C(F)(F)F)cc1C(F)(F)F` (stereo not shown) [Compound P1020], the mortality at 50 µg/cm2 in experiment [1] and in experiment [2] was 50 to 100% throughout.
As to `O=C(NC1(C(=O)NCc2cccc(Cl)c2)CC1)c1ccc(/C=C/C(c2cc(Cl)c(Cl)c(Cl)c2)C(F)(F)F)cc1Br` (stereo not shown) [FA27], the mortality at 50 µg/cm2 in experiment [1] and in experiment [2] was 50 to 100% in each case.
On to `Cc1cc(C(/C=C/c2ccc(C(=O)NC3(C(=O)NCC(F)(F)F)CC3)c(Br)c2)C(F)(F)F)ccc1F` (stereo not shown) [Compound P693], for which the mortality at 50 µg/cm2 in experiment [1] and in experiment [2] was 50 to 100% in each case.
Consider `O=C(NC1(C(=O)NCC(F)(F)F)CC1)c1ccc(/C=C/C(c2cc(Br)cc(Br)c2)C(F)(F)F)cc1C(F)(F)F` (stereo not shown) [Compound P1198], for which the mortality at 50 µg/cm2 in experiment [1] and in experiment [2] was 50 to 100% each time.
For the molecule `O=C(NC1(C(=O)NCC(F)(F)F)CC1)c1ccc(/C=C/C(c2cc(Cl)c(Cl)cc2Cl)C(F)(F)F)cc1Br` (stereo not shown) [Compound P108], the mortality at 50 µg/cm2 in experiment [1] and in experiment [2] was 50 to 100% throughout.
Consider `O=C(NC1(C(=O)NC2CCCOC2)CC1)c1ccc(/C=C/C(c2cc(Cl)c(Cl)c(Cl)c2)C(F)(F)F)cc1Br` (stereo not shown) [FA47], for which the mortality at 50 µg/cm2 in experiment [1] and in experiment [2] was 50 to 100% throughout.
Take `CCc1cc(Cl)cc(C(/C=C/c2ccc(C(=O)NC3(C(=O)NCC(F)(F)F)CC3)c(Br)c2)C(F)(F)F)c1` (stereo not shown) [FA13]: the mortality at 50 µg/cm2 in experiment [1] and in experiment [2] was 50 to 100% each time.
